Laboratory results: PubChem BioAssay AID264 (DTP/NCI, 2004)
Values joined by “and” are separate entries in the source; they are usually repeats but may differ in a detail not shown here. Identical values can stand only once. Results filed as inconclusive are left out.

System: nude mice, LX-1 lung xenograft intrarenal, tumor weight T/C
Experiment: NCI In Vivo Anticancer Drug Screen. Data for tumor model Human Lung LX-1 Xenograft (intrarenal inoculation) in NU/NU Swiss (nude) mice
Conditions: endpoint: mean tumor weight change, higher = larger tumour
Procedure, shortened: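 In vivo, transplantable tumor; compound vs vehicle arms; tumor size measured; value = T/C.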

[1] = dose: 50.0 mg/kg/injection, schedule: Q01DX010 (sc), vehicle: saline with Tween-80
[2] = dose: 300.0 mg/kg/injection, schedule: Q04DX003 (sc), vehicle: Klucel (hydroxypropylcellulose) (HPC)
[3] = dose: 600.0 mg/kg/injection, schedule: Q04DX003 (sc), vehicle: Klucel (hydroxypropylcellulose) (HPC)
[4] = dose: 1200.0 mg/kg/injection, schedule: Q04DX003 (sc), vehicle: Klucel (hydroxypropylcellulose) (HPC)
[5] = dose: 300.0 mg/kg/injection, schedule: Q04DX003 (sc), vehicle: suspension in saline
[6] = dose: 1200.0 mg/kg/injection, schedule: Q04DX003 (sc), vehicle: suspension in saline
[7] = dose: 1200.0 mg/kg/injection, schedule: Q04DX003 (sc), vehicle: saline with Tween-80
[8] = dose: 2400.0 mg/kg/injection, schedule: Q04DX003 (sc), vehicle: saline with Tween-80
[9] = dose: 100.0 mg/kg/injection, schedule: Q01DX010 (sc), vehicle: saline with Tween-80
[10] = dose: 200.0 mg/kg/injection, schedule: Q01DX010 (sc), vehicle: saline with Tween-80
[11] = dose: 300.0 mg/kg/injection, schedule: Q04DX003 (sc), vehicle: saline with Tween-80
[12] = dose: 600.0 mg/kg/injection, schedule: Q04DX003 (sc), vehicle: saline with Tween-80
[13] = dose: 400.0 mg/kg/injection, schedule: Q01DX010 (sc), vehicle: saline with Tween-80
[14] = dose: 100.0 mg/kg/injection, schedule: Q01DX010 (sc), vehicle: Klucel (hydroxypropylcellulose) (HPC)
[15] = dose: 200.0 mg/kg/injection, schedule: Q01DX010 (sc), vehicle: Klucel (hydroxypropylcellulose) (HPC)
[16] = dose: 400.0 mg/kg/injection, schedule: Q01DX010 (sc), vehicle: Klucel (hydroxypropylcellulose) (HPC)

SMILES: Cc1ncc([N+](=O)[O-])n1CCSC(N)=O
- T/C [1]: 90 % of control

SMILES: S=C(Nc1ccc(Cl)c(Cl)c1)N1c2ccccc2-n2cccc2C1c1cccnc1 (stereo not drawn)
- T/C [2]: 58 % of control
- T/C [3]: 104 % of control
- T/C [4]: 71 % of control
- T/C (dose: 2400.0 mg/kg/injection, schedule: Q04DX003 (sc), vehicle: Klucel (hydroxypropylcellulose) (HPC)): 65 % of control

SMILES: CN(C)[C@@H]1C(=O)C(C(N)=O)=C(O)[C@@]2(O)C(=O)C3=C(O)c4c(O)ccc(Cl)c4[C@@](C)(O)[C@H]3C[C@@H]12
- T/C (dose: 300.0 mg/kg/injection, schedule: Q04DX003 (sc), vehicle: saline): 81 % of control
- T/C (dose: 600.0 mg/kg/injection, schedule: Q04DX003 (sc), vehicle: saline): 200 % of control
- T/C (dose: 1200.0 mg/kg/injection, schedule: Q04DX003 (sc), vehicle: saline): 220 % of control

SMILES: N=C(N)SCc1cccc2c(=O)cc(-c3ccccc3)oc12
- T/C [5]: 51 % of control
- T/C (dose: 600.0 mg/kg/injection, schedule: Q04DX003 (sc), vehicle: suspension in saline): 39 % of control
- T/C [6]: 63 % of control

SMILES: CCCCN(CCCC)C(Cl)=Nc1ccccc1
- T/C (dose: 400.0 mg/kg/injection, schedule: Q04DX003 (sc), vehicle: other): 116 % of control

SMILES: N#CC(=C1C=CC(=NO)C=C1)c1ccc(Cl)cc1
- T/C (dose: 150.0 mg/kg/injection, schedule: Q04DX003 (sc), vehicle: saline with Tween-80): 173 % of control
- T/C [7]: 175 % of control and 198 % of control
- T/C [8]: 180 % of control

SMILES: CCNC(=O)OCc1c(COC(=O)NCC)c(-c2ccc(Cl)c(Cl)c2)n2c1CCC2
- T/C [9]: 26 % of control and 31 % of control
- T/C [10]: 95 % of control

SMILES: ClC1=C(Cl)C(Cl)=C(Cl)C1=Cc1ccccc1
- T/C (dose: 50.0 mg/kg/injection, schedule: Q04DX003 (sc), vehicle: saline with Tween-80): 96 % of control
- T/C (dose: 200.0 mg/kg/injection, schedule: Q04DX003 (sc), vehicle: saline with Tween-80): 91 % of control
- T/C (dose: 400.0 mg/kg/injection, schedule: Q04DX003 (sc), vehicle: saline with Tween-80): 105 % of control

SMILES: CNc1n[n+](-c2ccccc2)no1
- T/C (dose: 37.5 mg/kg/injection, schedule: Q04DX003 (sc), vehicle: water): 98 % of control
- T/C (dose: 75.0 mg/kg/injection, schedule: Q04DX003 (sc), vehicle: water): 92 % of control

SMILES: CCN1/C(=C/C=C/C=C/c2sc3ccccc3[n+]2CC)Sc2ccccc21
- T/C (dose: 1.5 mg/kg/injection, schedule: Q04DX003 (sc), vehicle: saline): 57 % of control

SMILES: Cc1c2cc(Cl)c3ccccc3c2c[n+]2ccccc12
- T/C [11]: 66 % of control
- T/C [12]: 81 % of control
- T/C [7]: 70 % of control

SMILES: CCc1ccc(C2=C(O)C(=O)C(c3ccccc3)=C(O)C2=O)cc1
- T/C [2]: 104 % of control
- T/C [3]: 49 % of control
- T/C [4]: 36 % of control

SMILES: CCC(=O)Sc1ccccc1C(=O)Nc1ccc(Cl)cc1
- T/C [11]: 97 % of control
- T/C [12]: 91 % of control
- T/C [8]: 98 % of control

SMILES: CCN(CC)CC[n+]1ccc2c(C)c3[nH]c4ccc(O)cc4c3c(C)c2c1
- T/C (dose: 25.0 mg/kg/injection, schedule: Q04DX003 (sc), vehicle: suspension in saline): 172 % of control
- T/C (dose: 50.0 mg/kg/injection, schedule: Q04DX003 (sc), vehicle: suspension in saline): 111 % of control

SMILES: COC1=C2C[C@@H](C)C[C@@H](OC)[C@@H](O)[C@H](C)/C=C(\C)[C@@H](OC(N)=O)[C@H](OC)/C=C\C=C(/C)C(=O)NC(=CC1=O)C2=O
- T/C (dose: 1.0 mg/kg/injection, schedule: Q04DX003 (sc), vehicle: saline): 77 % of control
- T/C (dose: 2.0 mg/kg/injection, schedule: Q04DX003 (sc), vehicle: saline): 57 % of control
- T/C (dose: 4.0 mg/kg/injection, schedule: Q04DX003 (sc), vehicle: saline): 104 % of control
- T/C (dose: 8.0 mg/kg/injection, schedule: Q04DX003 (sc), vehicle: saline): 81 % of control

SMILES: C=C(C)C(=O)OC1C/C(CO)=C\C(O)C/C(C)=C/C2OC(=O)C(=C)C21 (stereo not drawn)
- T/C (dose: 20.0 mg/kg/injection, schedule: Q04DX003 (sc), vehicle: saline + alcohol): 96 % of control
- T/C (dose: 40.0 mg/kg/injection, schedule: Q04DX003 (sc), vehicle: saline + alcohol): 119 % of control
- T/C (dose: 80.0 mg/kg/injection, schedule: Q04DX003 (sc), vehicle: saline + alcohol): 104 % of control
- T/C (dose: 160.0 mg/kg/injection, schedule: Q04DX003 (sc), vehicle: saline + alcohol): 107 % of control

SMILES: CC[C@H](CC[C@@H](C)C1CC[C@H]2[C@@H]3CC=C4C[C@@H](OP(=O)(N5CC5)N5CC5)CC[C@]4(C)[C@H]3CC[C@]12C)C(C)C (stereo partly drawn)
- T/C [11]: 57 % of control
- T/C [12]: 78 % of control
- T/C [7]: 83 % of control
- T/C [8]: 80 % of control

SMILES: O=C(NO)c1cc(O)c(O)c(O)c1
- T/C (dose: 200.0 mg/kg/injection, schedule: Q04DX003 (sc), vehicle: distilled water + Tween-80): 66 % of control
- T/C (dose: 400.0 mg/kg/injection, schedule: Q04DX003 (sc), vehicle: distilled water + Tween-80): 87 % of control
- T/C (dose: 800.0 mg/kg/injection, schedule: Q04DX003 (sc), vehicle: distilled water + Tween-80): 100 % of control
- T/C (dose: 1600.0 mg/kg/injection, schedule: Q04DX003 (sc), vehicle: distilled water + Tween-80): 90 % of control

SMILES: O=C(CO)c1ccc([N+](=O)[O-])cc1
- T/C [1]: 78 % of control
- T/C [9]: 86 % of control
- T/C [10]: 103 % of control
- T/C [13]: 70 % of control

SMILES: CC1=CC(=NN=c2cc(C)n([O-])c(C)c2)C=C(C)[N+]1=O
- T/C [5]: 96 % of control
- T/C [6]: 77 % of control

SMILES: C[C@@]12C(=O)OC(=O)[C@]1(C)[C@H]1CC[C@@H]2O1
- T/C (dose: 1.25 mg/kg/injection, schedule: Q04DX003 (sc), vehicle: Klucel (hydroxypropylcellulose) (HPC)): 113 % of control
- T/C (dose: 2.5 mg/kg/injection, schedule: Q04DX003 (sc), vehicle: Klucel (hydroxypropylcellulose) (HPC)): 86 % of control

SMILES: C=C1C(C)C2C(Cc3ccccc3)NC(=O)C23C(OC(C)=O)C=CC(C)(O)C(=O)C(C)C/C=C/C3C1O (stereo not drawn)
- T/C (dose: 7.5 mg/kg/injection, schedule: Q04DX003 (sc), vehicle: Klucel (hydroxypropylcellulose) (HPC)): 54 % of control
- T/C (dose: 15.0 mg/kg/injection, schedule: Q04DX003 (sc), vehicle: Klucel (hydroxypropylcellulose) (HPC)): 75 % of control

SMILES: COc1cccc2c1C(=O)c1c(O)c3c(c(O)c1C2=O)C[C@@](O)(/C(C)=N/NC(=O)c1ccc(Cl)cc1)C[C@@H]3OC1CC(N)C(O)C(C)O1 (stereo partly drawn)
- T/C (dose: 4.0 mg/kg/injection, schedule: Q01DX010 (sc), vehicle: water): 156 % of control
- T/C (dose: 6.0 mg/kg/injection, schedule: Q04DX003 (sc), vehicle: water): 64 % of control
- T/C (dose: 8.0 mg/kg/injection, schedule: Q01DX010 (sc), vehicle: water): 42 % of control
- T/C (dose: 16.0 mg/kg/injection, schedule: Q01DX010 (sc), vehicle: water): 43 % of control
- T/C (dose: 96.0 mg/kg/injection, schedule: Q04DX003 (sc), vehicle: water): 20 % of control and 33 % of control

SMILES: ClCC[N+]12CC[N+](CCCl)(CC1)C2
- T/C [1]: 42 % of control and 56 % of control
- T/C [13]: 24 % of control
- T/C (dose: 600.0 mg/kg/injection, schedule: Q04DX003 (sc), vehicle: water): 54 % of control

SMILES: ClCCCCCCCCCCc1ccccc1
- T/C [14]: 260 % of control
- T/C [15]: 94 % of control
- T/C [16]: 71 % of control
- T/C (dose: 800.0 mg/kg/injection, schedule: Q01DX010 (sc), vehicle: Klucel (hydroxypropylcellulose) (HPC)): 52 % of control

SMILES: Cc1cc(N(CCOS(C)(=O)=O)CCOS(C)(=O)=O)ccc1C=Nc1ccc(-c2nc(Cc3ccccc3)sc2C)cc1
- T/C (dose: 50.0 mg/kg/injection, schedule: Q01DX010 (sc), vehicle: Klucel (hydroxypropylcellulose) (HPC)): 12 % of control and 26 % of control
- T/C [14]: 5 % of control (2×) and 11 % of control
- T/C [15]: 1 % of control
- T/C [16]: 1 % of control

SMILES: CC(C)=CC(=O)OC1C2C(C)=CC(=O)C(O)C2(C)C2C3(O)OCC24C(CC(=O)OC14)C(C)C3O (stereo not drawn)
- T/C (dose: 1.25 mg/kg/injection, schedule: Q04DX003 (sc), vehicle: distilled water + Tween-80): 92 % of control
- T/C (dose: 2.5 mg/kg/injection, schedule: Q04DX003 (sc), vehicle: distilled water + Tween-80): 90 % of control
